This note sets out measurements from EP0326331B1, “Substituted quinolines and cinnolines” (Dow AgroSciences LLC, priority 1988, dated 1989).

Each structure is given as a SMILES string.

Holding throughout (type): in vivo
The test system of assay [1] is Twospotted spider mites (Tetranychus urticae Koch). Description: Mite/insect screen, SM. As to conditions: Tetranychus urticae, percent mortality, SAW, read-out: SM RESULTS %; for mortality at 200 ppm: SM & MA RATE 200 PPM; for mortality at 400 ppm: SM & MA RATE 400 PPM. A digest of the protocol: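 Read-out: percent mortality after standard exposure periods. Test solutions were water dilutions of compound dissolved in acetone/alcohol (50:50) with emulsifier blends; leaves were sprayed to runoff on both surfaces and air-dried for one hour before exposure.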

In a further assay the test system is corn rootworm. Description: Mite/insect screen, CRW. The note with it: percent mortality, read-out: CRW RESULTS %; for mortality at 12 ppm: CRW RATE 12.00 PPM; for mortality at 24 ppm: CRW RATE 24.00 PPM. A digest of the protocol:
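Corn rootworm mortality (%) was evaluated following standard exposure times. Test material was emulsified by dissolution in acetone/alcohol (1:1) containing sulfonate/nonionic emulsifier blends TOXIMUL R (23 g/L) and TOXIMUL S (13 g/L), and water-diluted to the indicated doses.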

For assay [2], the system named is Cercospora beticola (leaf spot). In words: Test 1 greenhouse foliar spray screen, leaf spot on sugar beet. As to conditions: disease control rating, foliar spray on sugar beet, 400 ppm (+++ at 100 ppm).
The subject of assay [3] is Septoria tritici (leaf blotch). Description: Test 1 greenhouse foliar spray screen, leaf blotch on wheat. The note with it: disease control rating, foliar spray on wheat, 400 ppm (+++ at 100 ppm).
Assay [4] concerns Erysiphe graminis tritici (powdery mildew). Description: Test 1 greenhouse foliar spray screen, powdery mildew on wheat. As to conditions: disease control rating, foliar spray on wheat, 400 ppm (+++ at 100 ppm).
In assay [5] the test system is Pseudoperonospora cubensis (downy mildew). Description: Test 1 greenhouse foliar spray screen, downy mildew on squash. As to conditions: disease control rating, foliar spray on squash, 400 ppm (+++ at 100 ppm).
For assay [6], the system named is Botrytis cinerea (gray mold). In words: Test 1 greenhouse foliar spray screen, gray mold on grape berries. The note with it: disease control rating, spray on grape berries, 400 ppm (+++ at 100 ppm).
In assay [7] the test system is Pyricularia oryzae (rice blast). Description: whole plant or invertebrate. The note with it: disease control rating, foliar spray on rice, 400 ppm (+++ at 100 ppm).
The subject of assay [8] is Puccinia recondita tritici (leaf rust). Description: Test 1 greenhouse foliar spray screen, leaf rust on wheat. The note with it: disease control rating, foliar spray on wheat, 400 ppm (+++ at 100 ppm).
Assay [9] concerns melon aphids (Aphis gossypii Glover). In words: Mite/insect screen, MA. As to conditions: Aphis gossypii, percent mortality, SAW, read-out: MA RESULTS %; for mortality at 200 ppm: SM & MA RATE 200 PPM; for mortality at 400 ppm: SM & MA RATE 400 PPM. Summed up:
(§1)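 Percent mortality was scored after standard exposure periods, following spraying of leaves to runoff (both surfaces, 10 psi, 1 h drying) with water dilutions of compound in emulsifier-containing acetone/alcohol (50:50). Armyworms received excised treated leaves in dishes.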

For assay [10], the system named is Venturia inaequalis (apple scab). Description: Test 1 greenhouse foliar spray screen, apple scab on apple seedling. The note with it: disease control rating, foliar spray on apple seedling, 400 ppm (+++ at 100 ppm).
For assay [11], the system named is southern armyworm (Spodopetra eridania Cramer). In words: Mite/insect screen, SAW. As to conditions: Spodoptera eridania, percent mortality, SAW, read-out: SAW RESULTS %; for mortality at 200 ppm: SM & MA RATE 200 PPM; for mortality at 400 ppm: SM & MA RATE 400 PPM. Summed up: as §1

`Clc1ccc(CCNc2ccnc3cc(Cl)ccc23)c(Cl)c1` [Example 44, 7-chloro-N-[2-(2,4-dichlorophenyl)ethyl]-4-quinolinamine]: in assay [1], the mortality at 200 ppm is 0% and the mortality at 400 ppm is 0%. In addition, in the assay with corn rootworm, the mortality at 12 ppm worked out at 0% and the mortality at 24 ppm came out at 0%. Also, in [2], the “LEAF SPOT” value is recorded as “+++ (90-100% control at 100 ppm)”. For the same compound, in assay [3], the “LEAF BLOT” value is given as “- (0-19% control at 400 ppm)”. The “POWD MDEW” value in assay [4] was “+++ (90-100% control at 100 ppm)”. In addition, the “DOWN MDEW” value in assay [5] is “+++ (90-100% control at 100 ppm)”. In assay [6], the “GRAY MOLD” value was “- (0-19% control at 400 ppm)”. Besides, the “RICE BLAST” value in assay [7] is reported as “+ (20-89% control at 400 ppm)”. In addition, the “LEAF RUST” value in [8] is on record as “+ (20-89% control at 400 ppm)”. In [9], the mortality at 200 ppm worked out at 0% and the mortality at 400 ppm is 0%. Further, the “APPL SCAB” value in [10] was “+ (20-89% control at 400 ppm)”. In addition, in assay [11], the mortality at 200 ppm was found to be 0% and the mortality at 400 ppm was determined as 0%.
Take `COc1cc(CCNc2ccnc3cc(Cl)ccc23)cc(OC)c1` [Example 45, 7-chloro-N-[2-(3,5-dimethoxyphenyl)ethyl]-4-quinolinamine]: in assay [1], the mortality at 200 ppm stood at 0% and the mortality at 400 ppm amounted to 0%. Further, in the assay with corn rootworm, the mortality at 12 ppm was 0% and the mortality at 24 ppm is 0%. Further, in assay [2], the “LEAF SPOT” value was “+++ (90-100% control at 100 ppm)”. The “LEAF BLOT” value in assay [3] is “- (0-19% control at 400 ppm)”. For the same compound, the “POWD MDEW” value in assay [4] is “+ (20-89% control at 400 ppm)”. In addition, the “DOWN MDEW” value in assay [5] is given as “++ (90-100% control at 400 ppm)”. For the same compound, the “GRAY MOLD” value in assay [6] is recorded as “- (0-19% control at 400 ppm)”. Further, the “RICE BLAST” value in assay [7] is “++ (90-100% control at 400 ppm)”. Further, the “LEAF RUST” value in assay [8] is “+ (20-89% control at 400 ppm)”. Further, in assay [9], the mortality at 200 ppm was 0% and the mortality at 400 ppm was found to be 0%. Further, in assay [10], the “APPL SCAB” value is recorded as “- (0-19% control at 400 ppm)”. In assay [11], the mortality at 200 ppm worked out at 0% and the mortality at 400 ppm is 0%.
For `COc1ccc(CCNc2ccnc3ccc(C)cc23)cc1` [Example 46, N-[2-(4-methoxyphenyl)ethyl]-6-methyl-4-quinolinamine], in [1], the mortality at 200 ppm is 0% and the mortality at 400 ppm was determined as 0%. Also, in the assay on corn rootworm, the mortality at 12 ppm was found to be 0% and the mortality at 24 ppm stood at 0%. Further, the “LEAF SPOT” value in assay [2] is recorded as “+++ (90-100% control at 100 ppm)”. The “LEAF BLOT” value in [3] was “+ (20-89% control at 400 ppm)”. In addition, the “POWD MDEW” value in assay [4] is “+ (20-89% control at 400 ppm)”. Moreover, the “DOWN MDEW” value in assay [5] is on record as “++ (90-100% control at 400 ppm)”. Further, the “GRAY MOLD” value in assay [6] was “- (0-19% control at 400 ppm)”. Besides, the “RICE BLAST” value in assay [7] is “++ (90-100% control at 400 ppm)”. In addition, the “LEAF RUST” value in [8] was “+ (20-89% control at 400 ppm)”. In [9], the mortality at 200 ppm is 0% and the mortality at 400 ppm came out at 0%. Also, the “APPL SCAB” value in assay [10] is “+ (20-89% control at 400 ppm)”. Further, in assay [11], the mortality at 200 ppm turned out to be 0% and the mortality at 400 ppm was 0%.
Regarding `COc1ccc(CCNc2ccnc3cc(C(F)(F)F)ccc23)cc1OC` [Example 48, N-[2-(3,4-dimethoxyphenyl)ethyl]-7-(trifluoromethyl)-4-quinolinamine], in assay [1], the mortality at 200 ppm was 0% and the mortality at 400 ppm worked out at 0%. Moreover, in the assay on corn rootworm, the mortality at 12 ppm was 0% and the mortality at 24 ppm was determined as 0%. Also, the “LEAF SPOT” value in assay [2] was “+ (20-89% control at 400 ppm)”. Moreover, the “LEAF BLOT” value in assay [3] was “- (0-19% control at 400 ppm)”. For the same compound, the “POWD MDEW” value in assay [4] is “+ (20-89% control at 400 ppm)”. Further, the “DOWN MDEW” value in [5] is recorded as “++ (90-100% control at 400 ppm)”. The “GRAY MOLD” value in assay [6] is given as “- (0-19% control at 400 ppm)”. Moreover, in assay [7], the “RICE BLAST” value was “+ (20-89% control at 400 ppm)”. In assay [8], the “LEAF RUST” value is listed as “+ (20-89% control at 400 ppm)”. In addition, in assay [9], the mortality at 200 ppm was found to be 0% and the mortality at 400 ppm turned out to be 0%. The “APPL SCAB” value in [10] is reported as “- (0-19% control at 400 ppm)”. In assay [11], the mortality at 200 ppm came to 0% and the mortality at 400 ppm was found to be 0%.
For the compound `Cc1ccc(CCNc2ccnc3cc(Cl)ccc23)cc1` [Example 50, 7-chloro-N-[2-(4-methylphenyl)ethyl]-4-quinolinamine], in assay [1], the mortality at 200 ppm was determined as 0% and the mortality at 400 ppm worked out at 0%. Also, in the assay on corn rootworm, the mortality at 12 ppm worked out at 0% and the mortality at 24 ppm worked out at 0%. Also, in [2], the “LEAF SPOT” value is on record as “- (0-19% control at 400 ppm)”. For the same compound, the “LEAF BLOT” value in assay [3] is recorded as “- (0-19% control at 400 ppm)”. Moreover, the “POWD MDEW” value in assay [4] is recorded as “+++ (90-100% control at 100 ppm)”. For the same compound, in assay [5], the “DOWN MDEW” value is given as “+++ (90-100% control at 100 ppm)”. The “GRAY MOLD” value in assay [6] was “- (0-19% control at 400 ppm)”. In addition, the “RICE BLAST” value in assay [7] is reported as “- (0-19% control at 400 ppm)”. In addition, the “LEAF RUST” value in assay [8] is listed as “++ (90-100% control at 400 ppm)”. In assay [9], the mortality at 200 ppm was 0% and the mortality at 400 ppm came out at 0%. Also, the “APPL SCAB” value in [10] is recorded as “- (0-19% control at 400 ppm)”. In assay [11], the mortality at 200 ppm stood at 0% and the mortality at 400 ppm was 0%.
On to `Fc1ccc(CCNc2ccnc3c(Cl)cccc23)cc1` [Example 51, 8-chloro-N-[2-(4-fluorophenyl)ethyl]-4-quinolinamine], for which, in assay [1], the mortality at 200 ppm was found to be 0% and the mortality at 400 ppm was determined as 0%. In addition, in the assay on corn rootworm, the mortality at 12 ppm was 0% and the mortality at 24 ppm was 0%. In addition, in assay [2], the “LEAF SPOT” value is reported as “+++ (90-100% control at 100 ppm)”. The “LEAF BLOT” value in [3] is listed as “- (0-19% control at 400 ppm)”. Besides, the “POWD MDEW” value in assay [4] is listed as “- (0-19% control at 400 ppm)”. Moreover, in assay [5], the “DOWN MDEW” value is recorded as “+++ (90-100% control at 100 ppm)”. In addition, the “GRAY MOLD” value in assay [6] is “- (0-19% control at 400 ppm)”. For the same compound, in assay [7], the “RICE BLAST” value is recorded as “+ (20-89% control at 400 ppm)”. In addition, the “LEAF RUST” value in [8] is reported as “+ (20-89% control at 400 ppm)”. Moreover, in [9], the mortality at 200 ppm worked out at 0% and the mortality at 400 ppm was 0%. In addition, the “APPL SCAB” value in assay [10] is “- (0-19% control at 400 ppm)”. Also, in assay [11], the mortality at 200 ppm came out at 0% and the mortality at 400 ppm was determined as 20%.
Turning to `FC(F)(F)c1cccc2c(NCCc3ccc(Cl)cc3Cl)ccnc12` [Example 52, N-[2-(2,4-dichlorophenyl)ethyl]-8-(trifluoromethyl)-4-quinolinamine], in assay [1], the mortality at 200 ppm worked out at 0% and the mortality at 400 ppm came out at 0%. For the same compound, in the assay on corn rootworm, the mortality at 12 ppm was found to be 0% and the mortality at 24 ppm was determined as 0%. Moreover, the “LEAF SPOT” value in [2] was “+ (20-89% control at 400 ppm)”. The “LEAF BLOT” value in assay [3] is “+++ (90-100% control at 100 ppm)”. The “POWD MDEW” value in assay [4] is recorded as “- (0-19% control at 400 ppm)”. Further, the “DOWN MDEW” value in assay [5] is on record as “+++ (90-100% control at 100 ppm)”. For the same compound, in assay [6], the “GRAY MOLD” value is listed as “- (0-19% control at 400 ppm)”. Besides, the “RICE BLAST” value in [7] is on record as “+ (20-89% control at 400 ppm)”. In addition, in assay [8], the “LEAF RUST” value is given as “+ (20-89% control at 400 ppm)”. Also, in assay [9], the mortality at 200 ppm turned out to be 0% and the mortality at 400 ppm was found to be 0%. The “APPL SCAB” value in assay [10] is “- (0-19% control at 400 ppm)”. Also, in assay [11], the mortality at 200 ppm was 0% and the mortality at 400 ppm is 0%.
